The values below are quoted from earlier work in patent US20050019366A1, “Drug-coated stents and methods of use therefor” (priority 2002, published 2005).

The test system of this data set is restenosis after angioplasty. To be noted: probucol 500 mg; twice daily for four weeks prior and six months after angioplasty.

`CC(C)(Sc1cc(C(C)(C)C)c(O)c(C(C)(C)C)c1)Sc1cc(C(C)(C)C)c(O)c(C(C)(C)C)c1` [Probucol, probucol]: the “reduction of the rate of restenosis after angioplasty” value is recorded as approximately 50%.
